In patent publication US20170037118A1, “Methods for treating and/or limiting development of diabetes” (Biocrine AB, priority 2013, published 2017):

Tested on: 12-weeks-old ob/ob islets
Test: Caspase 3/7 activity assay (apoptosis)
Assay type: cell-based, mouse
Details: β-cells from 12-weeks old ob/ob mice incubated overnight with the Ca2+-channel blocker
Protocol: ApoCIII expression was measured by real-time qPCR to determine the efficacy of apoCIII knockdown in cultured islets (n=4). […] (c) 25 mM KCl was used to induce depolarization and subsequent Ca^2+ influx (n=9-10). (d) Caspase 3/7 activity in ob/ob islets isolated from animals at 4-, 8- and 12-weeks of age (n=4). (e) Decrease in caspase activity in β-cells from 12-weeks old ob/ob mice either incubated overnight with the Ca^2+-channel blocker verapamil (left column) or exposed to apoCIII antisense (right column) (n=4). Data presented as mean±SEM. *P<0.05, ** P<0.01 by student's t-test or ANOVA (Tukey's post-hoc).
Caspase assay. Activity of capase 3/7 was determined using SensoLyte™ Homogeneous Rh110 Caspase 3/7 assay kit according to manufacturer's instructions, with modifications (AnaChem, USA). Briefly, islets or cells were harvested, lysed using lysis buffer (AnaChem, USA) and the protein quantified using BCA method. 10 μg of protein was loaded in a black 384-well plate and topped up with the appropriate amount of assay buffer (AnaChem, USA) containing Rh110 Caspase 3/7 Substrate. Plate was incubated in the dark for 1 hour at 24° C. Fluorescence intensity at Ex/Em=490/520nm was measured to determine the relative caspase activity.
It was determined if reducing endogenous apoCIII affects apoptosis in ob/ob islets. […]

Structure (SMILES): COc1ccc(CCN(C)CCCC(C#N)(c2ccc(OC)c(OC)c2)C(C)C)cc1OC (stereo not shown) [verapamil]
- reduction of caspase activity: 15%
